Measured values as given in ChEMBL document CHEMBL1201861, “Genomics of Drug Sensitity in Cancer screening data, Wellcome Trust Sanger Institute”.

How the values were obtained:
Assay in all cases: cells
C8166 = assay type: functional, cell-based, Homo sapiens; details: Homo sapiens, C8166
Description: SANGER: Inhibition of human C8166 cell growth in a cell viability assay.

OAW-42 = assay type: functional, cell-based; details: Homo sapiens
Description: SANGER: Inhibition of human OAW-42 cell growth in a cell viability assay.

RPMI-8866 = assay type: functional, cell-based, Homo sapiens; details: Homo sapiens, RPMI-8866
Description: SANGER: Inhibition of human RPMI-8866 cell growth in a cell viability assay.

NCI-H1304 = assay type: functional, cell-based, Homo sapiens; details: Homo sapiens, NCI-H1304
Description: SANGER: Inhibition of human NCI-H1304 cell growth in a cell viability assay.

NCI-N87 = assay type: functional, cell-based; details: Homo sapiens
Description: SANGER: Inhibition of human NCI-N87 cell growth in a cell viability assay.

MSTO-211H = assay type: functional, cell-based, Homo sapiens; details: Homo sapiens, MSTO-211H
Description: SANGER: Inhibition of human MSTO-211H cell growth in a cell viability assay.

no-10 = assay type: functional, cell-based, Homo sapiens; details: Homo sapiens
Description: SANGER: Inhibition of human no-10 cell growth in a cell viability assay.

COLO-320-HSR = assay type: functional, cell-based, Homo sapiens; details: Homo sapiens, COLO-320-HSR
Description: SANGER: Inhibition of human COLO-320-HSR cell growth in a cell viability assay.

NEC8 = assay type: functional, cell-based, Homo sapiens; details: Homo sapiens, NEC8
Description: SANGER: Inhibition of human NEC8 cell growth in a cell viability assay.

OCUB-M = assay type: functional, cell-based; details: Homo sapiens
Description: SANGER: Inhibition of human OCUB-M cell growth in a cell viability assay.

EFO-27 = assay type: functional, cell-based; details: Homo sapiens
Description: SANGER: Inhibition of human EFO-27 cell growth in a cell viability assay.

SK-MEL-1 = assay type: functional, cell-based, Homo sapiens; details: Homo sapiens, SK-MEL-1
Description: SANGER: Inhibition of human SK-MEL-1 cell growth in a cell viability assay.

KLE = assay type: functional, cell-based; details: Homo sapiens
Description: SANGER: Inhibition of human KLE cell growth in a cell viability assay.

HH = assay type: functional, cell-based, Homo sapiens; details: Homo sapiens, HH
Description: SANGER: Inhibition of human HH cell growth in a cell viability assay.

LS-411N = assay type: functional, cell-based, Homo sapiens; details: Homo sapiens, LS-411N
MHH-NB-11 = assay type: functional, cell-based, Homo sapiens; details: Homo sapiens, MHH-NB-11
Description: SANGER: Inhibition of human MHH-NB-11 cell growth in a cell viability assay.

A498 = assay type: functional, cell-based, Homo sapiens; details: Homo sapiens, A498
Description: SANGER: Inhibition of human A498 cell growth in a cell viability assay.

K562 = assay type: functional, cell-based, Homo sapiens; details: Homo sapiens, K562
Description: SANGER: Inhibition of human K-562 cell growth in a cell viability assay.

SW 962 = assay type: functional, cell-based, Homo sapiens; details: Homo sapiens, SW 962
Description: SANGER: Inhibition of human SW962 cell growth in a cell viability assay.

L-428 = assay type: functional, cell-based, Homo sapiens; details: Homo sapiens, L-428
Description: SANGER: Inhibition of human L-428 cell growth in a cell viability assay.

EW-11 = assay type: functional, cell-based, Homo sapiens; details: Homo sapiens, EW-11
Description: SANGER: Inhibition of human EW-11 cell growth in a cell viability assay.

DEL = assay type: functional, cell-based, Homo sapiens; details: Homo sapiens, DEL
Description: SANGER: Inhibition of human DEL cell growth in a cell viability assay.

BPH-1 = assay type: functional, cell-based; details: Homo sapiens
Description: SANGER: Inhibition of human BPH-1 cell growth in a cell viability assay.

SHP77 = assay type: functional, cell-based, Homo sapiens, SHP-77; details: Homo sapiens, SHP77
Description: SANGER: Inhibition of human SHP-77 cell growth in a cell viability assay.

NB5 = assay type: functional, cell-based, Homo sapiens; details: Homo sapiens, NB5
Description: SANGER: Inhibition of human NB5 cell growth in a cell viability assay.

TGW = assay type: functional, cell-based, Homo sapiens; details: Homo sapiens, TGW
Description: SANGER: Inhibition of human TGW cell growth in a cell viability assay.

TGBC24TKB = assay type: functional, cell-based; details: Homo sapiens
Description: SANGER: Inhibition of human TGBC24TKB cell growth in a cell viability assay.

NCI-H1355 = assay type: functional, cell-based, Homo sapiens; details: Homo sapiens, NCI-H1355
Description: SANGER: Inhibition of human NCI-H1355 cell growth in a cell viability assay.

LB1047-RCC = assay type: functional, cell-based, Homo sapiens; details: Homo sapiens, LB1047-RCC
Description: SANGER: Inhibition of human LB1047-RCC cell growth in a cell viability assay.

RS4-11 = assay type: functional, cell-based, Homo sapiens; details: Homo sapiens, RS4-11
Description: SANGER: Inhibition of human RS4-11 cell growth in a cell viability assay.

GAK = assay type: functional, cell-based, Homo sapiens; details: Homo sapiens, GAK
Description: SANGER: Inhibition of human GAK cell growth in a cell viability assay.

IST-MES1 = assay type: functional, cell-based, Homo sapiens; details: Homo sapiens, IST-MES1
Description: SANGER: Inhibition of human IST-MES1 cell growth in a cell viability assay.

ATN-1 = assay type: functional, cell-based, Homo sapiens; details: Homo sapiens, ATN-1
Description: SANGER: Inhibition of human ATN-1 cell growth in a cell viability assay.

A388 = assay type: functional, cell-based; details: Homo sapiens
Description: SANGER: Inhibition of human A388 cell growth in a cell viability assay.

COLO-668 = assay type: functional, cell-based, Homo sapiens; details: Homo sapiens, COLO-668
Description: SANGER: Inhibition of human COLO-668 cell growth in a cell viability assay.

Ramos-2G6-4C10 = assay type: functional, cell-based, Homo sapiens; details: Homo sapiens, Ramos-2G6-4C10
Description: SANGER: Inhibition of human Ramos-2G6-4C10 cell growth in a cell viability assay.

BB49-HNC = assay type: functional, cell-based, Homo sapiens; details: Homo sapiens, BB49-HNC
Description: SANGER: Inhibition of human BB49-HNC cell growth in a cell viability assay.

MPP-89 = assay type: functional, cell-based, Homo sapiens; details: Homo sapiens, MPP-89
Description: SANGER: Inhibition of human MPP-89 cell growth in a cell viability assay.

A253 cell line = assay type: functional, cell-based, Homo sapiens; details: Homo sapiens, A253
Description: SANGER: Inhibition of human A253 cell growth in a cell viability assay.

NCI-H1581 = assay type: functional, cell-based, Homo sapiens; details: Homo sapiens, NCI-H1581
Description: SANGER: Inhibition of human NCI-H1581 cell growth in a cell viability assay.

NCI-H1299 = assay type: functional, cell-based; details: Homo sapiens
Description: SANGER: Inhibition of human NCI-H1299 cell growth in a cell viability assay.

HEL = assay type: functional, cell-based, Homo sapiens; details: Homo sapiens, HEL
Description: SANGER: Inhibition of human HEL cell growth in a cell viability assay.

ALL-PO = assay type: functional, cell-based, Homo sapiens; details: Homo sapiens, ALL-PO
Description: SANGER: Inhibition of human ALL-PO cell growth in a cell viability assay.

NH-12 = assay type: functional, cell-based, Homo sapiens; details: Homo sapiens, NH-12
Description: SANGER: Inhibition of human NH-12 cell growth in a cell viability assay.

NCI-H209 = assay type: functional, cell-based, Homo sapiens; details: Homo sapiens, NCI-H209
Description: SANGER: Inhibition of human NCI-H209 cell growth in a cell viability assay.

UACC-257 = assay type: functional, cell-based, Homo sapiens; details: Homo sapiens, UACC-257
Description: SANGER: Inhibition of human UACC-257 cell growth in a cell viability assay.

CTB-1 = assay type: functional, cell-based, Homo sapiens; details: Homo sapiens, CTB-1
Description: SANGER: Inhibition of human CTB-1 cell growth in a cell viability assay.

LB996-RCC = assay type: functional, cell-based, Homo sapiens; details: Homo sapiens, LB996-RCC
Description: SANGER: Inhibition of human LB996-RCC cell growth in a cell viability assay.

EW-1 = assay type: functional, cell-based, Homo sapiens; details: Homo sapiens, EW-1
Description: SANGER: Inhibition of human EW-1 cell growth in a cell viability assay.

Becker = assay type: functional, cell-based, Homo sapiens; details: Homo sapiens, Becker
Description: SANGER: Inhibition of human Becker cell growth in a cell viability assay.

RKO = assay type: functional, cell-based, Homo sapiens; details: Homo sapiens, RKO
Description: SANGER: Inhibition of human RKO cell growth in a cell viability assay.

## CC1(C)CCC(c2ccc(Cl)cc2)=C(CN2CCN(c3ccc(C(=O)NS(=O)(=O)c4ccc(N[C@H](CCN5CCOCC5)CSc5ccccc5)c(S(=O)(=O)C(F)(F)F)c4)cc3)CC2)C1 [NAVITOCLAX]
C8166
  IC50: > 2000 nM
OAW-42
  IC50: 961 nM
RPMI-8866
  IC50: > 2000 nM
NCI-H1304
  IC50: 462 nM
NCI-N87
  IC50: > 2000 nM
MSTO-211H
  IC50: > 2000 nM
no-10
  IC50: > 2000 nM
COLO-320-HSR
  IC50: > 2000 nM
NEC8
  IC50: > 2000 nM
OCUB-M
  IC50: > 2000 nM
EFO-27
  IC50: > 2000 nM
SK-MEL-1
  IC50: > 2000 nM
KLE
  IC50: > 2000 nM
HH
  IC50: > 2000 nM
LS-411N
  IC50: > 2000 nM
MHH-NB-11
  IC50: > 2000 nM
A498
  IC50: > 2000 nM
K562
  IC50: > 2000 nM
SW 962
  IC50: > 2000 nM
L-428
  IC50: 1010 nM
EW-11
  IC50: 1960 nM
DEL
  IC50: 1750 nM
BPH-1
  IC50: > 2000 nM
SHP77
  IC50: > 2000 nM
NB5
  IC50: > 2000 nM
TGW
  IC50: 46.3 nM
TGBC24TKB
  IC50: 458 nM
NCI-H1355
  IC50: > 2000 nM
LB1047-RCC
  IC50: > 2000 nM
RS4-11
  IC50: 25.9 nM
GAK
  IC50: > 2000 nM
IST-MES1
  IC50: > 2000 nM
ATN-1
  IC50: 47.3 nM
A388
  IC50: 1690 nM
COLO-668
  IC50: > 2000 nM
Ramos-2G6-4C10
  IC50: 1740 nM
BB49-HNC
  IC50: > 2000 nM
MPP-89
  IC50: > 2000 nM
A253 cell line
  IC50: > 2000 nM
NCI-H1581
  IC50: > 2000 nM
NCI-H1299
  IC50: > 2000 nM
HEL
  IC50: 1310 nM
ALL-PO
  IC50: 220 nM
NH-12
  IC50: 107 nM
NCI-H209
  IC50: 87 nM
UACC-257
  IC50: > 2000 nM
CTB-1
  IC50: > 2000 nM
LB996-RCC
  IC50: > 2000 nM
EW-1
  IC50: > 2000 nM
Becker
  IC50: > 2000 nM
RKO
  IC50: > 2000 nM

## C/C(=C\c1csc(C)n1)[C@@H]1C[C@@H]2O[C@]2(C)CCC[C@H](C)[C@H](O)[C@@H](C)C(=O)C(C)(C)[C@@H](O)CC(=O)O1 [PATUPILONE]
C8166
  IC50: 31.7 nM
OAW-42
  IC50: 2.18 nM
RPMI-8866
  IC50: 19.8 nM
NCI-H1304
  IC50: 17.5 nM
NCI-N87
  IC50: 30.3 nM
MSTO-211H
  IC50: > 32 nM
no-10
  IC50: 5.56 nM
COLO-320-HSR
  IC50: 5.21 nM
NEC8
  IC50: 3.53 nM
OCUB-M
  IC50: 1.03 nM
EFO-27
  IC50: 1.69 nM
SK-MEL-1
  IC50: > 32 nM
KLE
  IC50: > 32 nM
HH
  IC50: 9.8 nM
LS-411N
  IC50: 23.6 nM
MHH-NB-11
  IC50: 15.2 nM
A498
  IC50: > 32 nM
K562
  IC50: 6.89 nM
SW 962
  IC50: 1.04 nM
L-428
  IC50: > 32 nM
EW-11
  IC50: > 32 nM
DEL
  IC50: 4.29 nM
BPH-1
  IC50: 0.521 nM
SHP77
  IC50: 4.92 nM
NB5
  IC50: 10.6 nM
TGW
  IC50: 13.5 nM
TGBC24TKB
  IC50: 2.75 nM
NCI-H1355
  IC50: 0.915 nM
LB1047-RCC
  IC50: 2 nM
RS4-11
  IC50: 2.02 nM
GAK
  IC50: 13.5 nM
IST-MES1
  IC50: > 32 nM
ATN-1
  IC50: 3.47 nM
A388
  IC50: 0.94 nM
COLO-668
  IC50: > 32 nM
Ramos-2G6-4C10
  IC50: 9.62 nM
BB49-HNC
  IC50: > 32 nM
MPP-89
  IC50: 8.29 nM
A253 cell line
  IC50: 10.3 nM
NCI-H1581
  IC50: > 32 nM
NCI-H1299
  IC50: 0.88 nM
HEL
  IC50: 4.14 nM
ALL-PO
  IC50: 1.47 nM
NH-12
  IC50: 0.891 nM
NCI-H209
  IC50: 20.9 nM
UACC-257
  IC50: 29.7 nM
CTB-1
  IC50: 8.31 nM
LB996-RCC
  IC50: 6.03 nM
EW-1
  IC50: 1.9 nM
Becker
  IC50: 2.86 nM
RKO
  IC50: 0.0647 nM

## Cc1ccc(C(=O)Nc2ccc(CN3CCN(C)CC3)c(C(F)(F)F)c2)cc1C#Cc1cnc2cccnn12 [PONATINIB]
C8166
  IC50: […]
OAW-42
  IC50: […]
RPMI-8866
  IC50: […]
NCI-H1304
  IC50: […]
NCI-N87
  IC50: […]
MSTO-211H
  IC50: […]
no-10
  IC50: […]
COLO-320-HSR
  IC50: […]
NEC8
  IC50: […]
OCUB-M
  IC50: […]
EFO-27
  IC50: […]
SK-MEL-1
  IC50: […]
KLE
  IC50: […]
HH
  IC50: […]
LS-411N
  IC50: […]
MHH-NB-11
  IC50: […]
A498
  IC50: […]
K562
  IC50: […]
SW 962
  IC50: […]
L-428
  IC50: […]
EW-11
  IC50: […]
DEL
  IC50: […]
BPH-1
  IC50: […]
SHP77
  IC50: […]
NB5
  IC50: […]
TGW
  IC50: […]
TGBC24TKB
  IC50: […]
NCI-H1355
  IC50: […]
LB1047-RCC
  IC50: […]
RS4-11
  IC50: […]
GAK
  IC50: […]
IST-MES1
  IC50: 268 nM
ATN-1
  IC50: […]
A388
  IC50: […]
COLO-668
  IC50: […]
Ramos-2G6-4C10
  IC50: […]
BB49-HNC
  IC50: […]
MPP-89
  IC50: 169 nM
A253 cell line
  IC50: […]
NCI-H1581
  IC50: […]
NCI-H1299
  IC50: […]
HEL
  IC50: […]
ALL-PO
  IC50: 124 nM
NH-12
  IC50: […]
NCI-H209
  IC50: […]
UACC-257
  IC50: […]
CTB-1
  IC50: 173 nM
LB996-RCC
  IC50: […]
EW-1
  IC50: […]
Becker
  IC50: […]
RKO
  IC50: […]
